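Method: 48-hour compound exposure of cells in 96-well plates, five concentrations, linear interpolation of endpoints. GI50 is the concentration that inhibits growth by half. TGI denotes the concentration required for complete inhibition of growth.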
Assays:
Assay in all cases: NCI anticancer screen, dose series, 48 h
[1] = system: EKVX NSCLC
[2] = system: CCRF-CEM leukemia
[3] = system: K-562 leukemia
[4] = system: SF-295 CNS
[5] = system: OVCAR-5 ovarian
[6] = system: HCT-116 colon
[7] = system: CAKI-1 renal
[8] = system: SK-MEL-5 melanoma
[9] = system: ACHN renal
[10] = system: HT29 colon

Compound | GI50 [1] [µM] | TGI [1] [µM] | GI50 [2] [µM] | TGI [2] [µM] | GI50 [3] [µM] | TGI [3] [µM] | GI50 [4] [µM] | TGI [4] [µM] | GI50 [5] [µM] | TGI [5] [µM] | GI50 [6] [µM] | TGI [6] [µM] | GI50 [7] [µM] | TGI [7] [µM] | GI50 [8] [µM] | TGI [8] [µM] | GI50 [9] [µM] | TGI [9] [µM] | GI50 [10] [µM] | TGI [10] [µM]
COC(=O)c1ccc(CN2C(=O)C(Cl)=C(Nc3ccc(OC)c(Cl)c3)C2=O)cc1 | 22.3 | > 50 | > 50 | > 50 | 4.17 | > 50 | 20.4 | > 50 | 17.8 | 44.1 | 13.3 | > 50 | 17.3 | > 50 | 31.6 | > 50 | 8.44 | 18.4 |  | 
COc1ccc(/C=C\c2cc(OC)c(OC)c(OC)c2)c(NS(=O)(=O)c2ccc(Cl)cc2)c1O |  |  | 0.159 | > 100 | 0.0323 | 20.2 | 0.256 | 12.2 | 2.86 | 33.8 | 0.114 | > 100 | 0.0542 | 28.7 | 0.0511 | 0.332 | 0.0838 | 30.7 | 2.76 | 11.9
CC1(O)CCC2(C)C(=O)C1(C)CCC21OCCO1 (configuration not stated) |  | > 100 |  | > 100 |  | > 100 |  | > 100 |  | > 100 |  |  |  |  |  | > 100 |  | > 100 |  | > 100
CCn1c(=O)c2c3ccc(OC(C)=O)cc3[nH]c2c2ccc(OC(C)=O)cc21 |  |  |  | > 100 |  | > 100 |  | > 100 |  | > 100 |  | 30.1 |  | > 100 |  | > 100 |  | 89.6 |  | > 100
COc1cc2c3c(ncc2c(OC)c1OC)-c1cc2c(cc1C3)OCO2 | 17.2 | 73.9 |  |  | 4.27 | 20.5 | 29.8 | > 100 | 58.5 | > 100 | 22.1 | 36.5 | 42.5 | > 100 | 54.1 | > 100 | 20.7 | 47.2 |  | 
C[C@]12CC[C@H]3[C@@H](CC[C@]4(O)C[C@@H](O)CC[C@]34CO)[C@@]1(O)CC[C@@H]2C1=CC(=O)OC1 |  | 3.49 |  | > 36.7 |  | > 100 |  | 5.27 |  | 10.5 |  | 4.31 |  |  |  | 5.08 |  | 7.08 |  | 7.81
CCCCN(CCCC)CCc1c(C)cc(C)c(CCN(CCCC)CCCC)c1O |  |  | 3.12 | > 100 | 2.25 | > 100 | 2.2 | 6.97 | 3.26 | > 100 | 1.87 | 8.34 | 2.17 | 7.35 | 1.97 | 4.1 | 3.47 | > 100 | 2.52 | 13
NC(=O)c1csc(C2CCC(CO)O2)n1 (configuration not stated) |  | > 100 |  | > 100 |  | > 100 |  | > 100 |  | > 100 |  | > 100 |  | > 100 |  |  |  | > 100 |  | > 100
O=C(CSc1nc(-c2ccccc2)c(-c2ccccc2)[nH]1)NNC(=S)Nc1ccccc1 |  | > 100 |  | > 100 |  |  |  | > 100 |  | > 100 |  | > 100 |  | > 100 |  | > 100 |  | > 100 |  | > 100
CN1C(=O)C2C=CC1C1CCC2N(C)C1=O (configuration not stated) |  | > 100 |  | > 100 |  | > 100 |  | > 100 |  | > 100 |  | > 100 |  | > 100 |  | > 100 |  |  |  | > 100
CC(=O)c1cccc(-c2cccc(-c3ccn(CCN4CCOCC4)n3)c2)c1 |  |  | > 20 | > 20 | > 20 | > 20 |  |  | > 20 | > 20 | > 20 | > 20 | > 20 | > 20 | 11.6 | > 20 | > 20 | > 20 | > 20 | > 20
CCOC(=O)Nc1nc2cc(OCC)ccc2s1 |  |  | > 100 | > 100 | 3 | > 100 | > 100 | > 100 | > 100 | > 100 | 6.82 | > 100 | > 75.4 | > 100 | 8.44 | > 100 | > 100 | > 100 | 4.26 | > 100
O=C(O)Cc1ccccc1CCc1ccccc1Cl |  | > 100 |  | > 100 |  | > 100 |  | > 100 |  | > 100 |  | > 100 |  | > 100 |  | > 100 |  |  |  | > 100
COC(=O)[C@@]1(C)CCC[C@]2(C(=O)O)C3Cc4occc4[C@H](C)[C@@H]3CCC21 (some centres not stated) |  | > 100 |  | > 100 |  | > 100 |  | > 100 |  | > 100 |  | > 100 |  |  |  | > 100 |  | > 100 |  | 91.8
CCOC(=O)C1=C(Nc2ccc(Cl)c(Cl)c2)OC/C1=N\NC(=O)Cc1ccccc1 |  | > 100 |  | > 100 |  | > 100 |  | > 100 |  | > 100 |  | > 100 |  | > 100 |  | > 100 |  |  |  | 
O=c1cc(-c2ccccn2)[nH]c2cc(F)ccc12 |  | > 100 |  |  |  | > 100 |  | > 100 |  | > 100 |  | > 100 |  |  |  | > 100 |  | > 100 |  | > 100
CCCCCCCCCCCCCCCCCCNC(=O)OCC(CNS(=O)(=O)CCC[n+]1cccc2ccccc21)COC (configuration not stated) |  | 65.7 |  |  |  | > 100 |  | 30.3 |  | 6.09 |  | 5.78 |  | 51.3 |  | 7.03 |  | 29.9 |  | 
Clc1ccc2c(c1)C(N1CCNCC1)=Nc1ccccc1O2 | 3.47 | 17.4 | 1.9 | 4.77 |  |  | 1.92 | 3.82 | 3.28 | 12.9 | 1.42 | 2.8 | 2.2 | 7.83 | 1.39 | 2.69 | 1.97 | 4.2 | 1.72 | 4.19
